Patent US7601687B2, “Mechanism for identifying drugs for the treatment of type II diabetes” (BioCrine AB, priority 2006, dated 2009)
Entries after “also recorded” stand apart in the source; their conditions may differ.

Tested on: rat βGK promoter
Experiment: On-line monitoring of βGK promoter-driven GFP expression (prβGK.GFP) in transfected HIT-T15 cells, islet cells and islets
Type: cell-based, hamster (HIT-T15), rat (islet cells)
Conditions: for effect of inhibitor on insulin-stimulated βGK transcription / promoter activity: 5 mU/ml insulin 5 min, 150 nM BIM, 20 μM PD98059, 10 μM PD169316, 100 μM HNMPA-(AM)3, 400 nM AC, FIG. 5; for effect of inhibitor on insulin-stimulated βGK transcription / promoter activity / effect of inhibitor on insulin-stimulated βGK promoter activity (GFP) in the same co-transfected cell: 25 μM LY294002, 10 nM rapamycin; for effect of inhibitor on insulin-stimulated βGK promoter activity (GFP) in the same co-transfected cell: 5 mU/ml insulin, 400 nM AC, 100 μM HNMPA-(AM)3
Source text: Construction of prIns1.GFP has been described earlier (Leibiger et al., 1998a). Vector prIns1.DsRed was generated by exchanging the EGFP-expression cassette versus the DsRed-expression cassette obtained from pDsRed1-1 (Clontech). Plasmid prβGK.GFP (i.e. prβGK-278.GFP) was generated by exchanging the CAT-SV40pA-expression cassette of prβGK-278.CAT (Leibiger et al., 1994a) versus the EGFP-bGHpA-expression cassette obtained from pRcCMVI.GFP (Moede et al., 1999). […] All vector constructions were verified by DNA sequence analysis. […] Expression constructs pCMV5.PKBα, pCMV5.PKBαΔ308/437, pCMV5.PDK1 and pCMV5.PDK1-antisense were kindly provided by Drs. P. Cohen and D. R. Alessi (MRC Phosphorylation Unit, University of Dundee, UK).
HIT cells were reported to show glucose responsiveness at subphysiological concentrations between 0.1 and 2 mM (Sharma et al., 1995). HIT cells were grown in RPMI 1640 medium supplemented with 100 units/ml penicillin, 100 μg/ml streptomycin, 2 mM glutamine and 10% fetal calf serum at 5% CO2 and 37° C. Pancreatic islets were isolated from normally fed male Wistar rats and from mice by collagenase digestion. Isolated islets were incubated overnight at 5% CO2 and 37° C. in RPMI 1640 medium, supplemented as described above. Transfection of HIT-T15 and islet cells was performed overnight by the lipofectamine technique in RPMI 1640 medium, without serum and antibiotics. For on-line monitoring, cells were grown and transfected on 24-mm glass coverslips. Following transfection, HIT cells were cultured for 12-18 h in RPMI 1640 medium containing 0.1 mM glucose, 10% fetal calf serum and supplemented as above. Before stimulation, islets and islet cells were incubated for 2 h in RPMI 1640 medium, supplemented as above but containing 3 mM glucose. All expression constructs were prepared using the Qiagen Plasmid Maxi Kit (Qiagen), except those used to produce the adenoviruses which where purified by ultracentrifugation via a CsCI-gradient (as described in Sambrook et al, 1989).
Islets were transduced with Ad.rβGK.GFP or Ad.CMV.GFP by incubating 50 islets with 1 ml virus-containing medium for 90 min at 37° C. and 5% CO2. Following transduction, islets were washed 3 times with PBS and cultured further in RPMI 1640 medium. Islets were stimulated 40-72 h after transduction, as described below and analyzed by laser-scanning confocal microscopy.
All experiments were performed in RPMI 1640 medium, supplemented as above. Protein kinase inhibitors, antibodies or nifedipine were added to the culture medium 30 min prior to stimulation and were kept in the medium throughout stimulation. After stimulation islets, islet cells and HIT cells were cultured further at substimulatory glucose concentrations (0.1 mM for HIT cells and 3 mM for islets and islet cells). For RNA-analysis, islets and cells were harvested 60 min after start of stimulation, if not indicated otherwise. For analysis of protein kinase activities or tyrosine phosphorylation, cells were harvested immediately following stimulation.
Detection of fluorescence by digital imaging fluorescence microscopy was performed as described previously (Leibiger et al., 1998a; Leibiger et al., 1998b). Briefly, transfected cells were grown on 24-mm glass coverslips. After stimulation the coverslips were placed into a perifusion chamber which was mounted on an inverted microscope (Zeiss Axiovert 135TV). Temperature was kept at 37° C. and the cells were perfused with RPMI 1640 medium. The objective lens used was a Zeiss-Fluar ×40/1.30 oil Imm Korr. Fluorescence imaging was performed with a cooled charged-coupled device camera (CH250 with KAF 1400, Photometrics, Tucson, Ariz.) connected to an imaging system (Inovision) with fluorescence excitation from a SPEX fluorolog-2 CM1T11I spectrofluorometer (Spex Industries).

Molecule | effect of inhibitor on insulin-stimulated βGK transcription / promoter activity | effect of inhibitor on insulin-stimulated βGK promoter activity (GFP) in the same co-transfected cell | βGK promoter-driven GFP fluorescence upon insulin stimulation (5 mU insulin per ml for 5 min, substimulatory glucose) | amount of exogenous insulin required to gain an effect on βGK promoter activation (transfected HIT-T15 cells, supplemented culture medium (FIG. 4B))
CC(=O)OCOC(c1ccc2ccccc2c1)P(=O)(OCOC(C)=O)OCOC(C)=O (stereo not drawn) [HNMPA-(AM)3] | sensitive | abolished | – | –
insulin | – | – | increase; also recorded: elevation | 20 μU per ml
autocamtide-2 related inhibitory peptide | altered neither | no effect | – | –
